Source: BindingDB's records for patent US8476306 (The Medicines, 2013)

Target: Urokinase-type plasminogen activator (Homo sapiens, UniProt P00749)
Experiment: Enzyme Assay
Details: 24 °C
Description: Inhibition constant of the compound against Plasminogen activator urokinase

Row | Ki [nM] | Structure (SMILES)
1 | 120 | N=C(N)c1ccc(CNC(=O)CNC(=O)[C@@H](CO)NS(=O)(=O)Cc2ccc(CN)cc2)cc1 [US8476306, 6.11]
2 | 100 | N=C(N)c1ccc(CNC(=O)CNC(=O)[C@@H](CO)NS(=O)(=O)Cc2ccncc2)cc1 [US8476306, 6.24]
3 | 24 | N=C(N)c1ccc(CNC(=O)[C@H](CCCCN)NC(=O)[C@@H](CO)NS(=O)(=O)Cc2ccccc2)cc1 [US8476306, 8.1]
4 | 8.9 | N=C(N)c1ccc(CNC(=O)[C@H](CCCN=C(N)N)NC(=O)[C@@H](CO)NS(=O)(=O)Cc2ccccc2)cc1 [US8476306, 8.2]
